Key:
[1] = tested on: large crabgrass (Digitaria sanguinalis); assay: Glasshouse trial, control of large crabgrass, mesotrione and prodiamine spray applied post-emergence; format: in vivo; settings: for control of large crabgrass on its own: spray post-emergence, 14 DAT
Procedure: A glasshouse trial was carried out. Large crabgrass seeds were sown into standard glasshouse potting mix (1:1 v/v Promix:Vero sand soil) contained in 10 cm square plastic pots. Treatments were replicated three times. Mesotrione (in the form Callisto® 480SE) was applied post-emergence to large crabgrass (Digitaria sanguinalis) at either 12 g ai/ha or 24 g ai/ha with or without prodiamine (in the form Barricade® 4FL). When used, prodiamine was applied at a rate of 210 g ai/ha or 420 g ai/ha. The adjuvant system was X-77 at 0.1% v/v in deionised water. 200 litres of herbicide/adjuvant system was used per hectare. General weed control was evaluated at 7 and 14 days after treatment (DAT). It is noted that all herbicides were applied at reduced field rates because herbicide effects are magnified in a glasshouse environment. Rates were chosen to give a 50 to 70% level of control with herbicides applied alone as this allows for detection of any synergistic effect when tank mixtures are used.
The results were evaluated using the Colby formula. The expected result for (A+B) is (A+B)−(A×B/100) where A and B are the ‘observed’ results for A and B on their own.

large crabgrass = assay: Glasshouse trial, control of large crabgrass, mesotrione and prodiamine spray applied pre-emergence; format: in vivo, Digitaria sanguinalis; settings: for control of large crabgrass on its own: spray pre-emergence, 7 DAT
Procedure: A glasshouse trial was carried out. Large crabgrass seeds were sown into standard glasshouse potting mix (1:1 v/v Promix:Vero sand soil) contained in 10 cm square plastic pots. Treatments were replicated three times. Mesotrione (in the form Callisto® 480SE) was applied pre-emergence to large crabgrass at either 12 g ai/ha or 24 g ai/ha with or without prodiamine (in the form Barricade® 4FL). When used, prodiamine was applied at a rate of 53 g ai/ha or 105 g ai/ha. The adjuvant system was X-77 at 0.1% v/v in deionised water. 200 litres of herbicide/adjuvant system was used per hectare. General weed control was evaluated at 7 and 14 days after treatment (DAT).
It is noted that control of large crabgrass with mesotrione alone applied pre-emergence at the higher rate (24 g ai/ha) was high; thus it was not possible to detect synergy when mesotrione was mixed with prodiamine. […] The results were evaluated using the Colby formula. The expected result for (A+B) is (A+B)−(A×B/100) where A and B are the ‘observed’ results for A and B on their own.

| Compound | control of large crabgrass on its own ([1]; prodiamine alone, 210 or 420 g ai/ha) | control of large crabgrass on its own (large crabgrass; prodiamine alone, 105 g ai/ha) [%] | control of large crabgrass on its own ([1]; mesotrione alone at the higher rate (24 g ai/ha)) [%] | control of large crabgrass on its own ([1]; mesotrione alone at the lower rate (12 g ai/ha)) [%] | control of large crabgrass with mesotrione alone ([1]; post-emergence, 7 DAT) | control of large crabgrass on its own (large crabgrass; mesotrione alone, 12 g ai/ha) [%] | control of large crabgrass with mesotrione alone (large crabgrass; pre-emergence at the higher rate (24 g ai/ha)) |
| --- | --- | --- | --- | --- | --- | --- | --- |
| CCCN(CCC)c1c([N+](=O)[O-])cc(C(F)(F)F)c(N)c1[N+](=O)[O-] [Prodiamine, N^3,N^3-di-n-propyl-2,4-dinitro-6-(trifluoromethyl)-m-phenylenediamine] | no control | 76 |  |  |  |  |  |
| CS(=O)(=O)c1ccc(C(=O)C2C(=O)CCCC2=O)c([N+](=O)[O-])c1 [Mesotrione, 2-(2′-nitro-4′-methylsulphonylbenzoyl)-1,3-cyclohexanedione] |  |  | 66.7 | 46.7 | relatively high | 50 | high |

Source: patent publication US20100113272A1, “HERBICIDAL COMPOSITION AND METHOD OF USE THEREOF” (SYNGENTA CORP PROTECTION, INC., priority 2006, published 2010)
